The values that follow come from patent US6436918B1, “Steroid sulfatase inhibitors and methods for making and using the same” (Duquesne University of the Holy Ghost, priority 1997, dated 2002).

This assay addresses T1, recombinant human estrone sulfatase (Homo sapiens, UniProt P08842).
T1 construct: made in house; host or cells: Chinese Hamster Ovary (CHO) cells
T1 sequence (P08842 22-583): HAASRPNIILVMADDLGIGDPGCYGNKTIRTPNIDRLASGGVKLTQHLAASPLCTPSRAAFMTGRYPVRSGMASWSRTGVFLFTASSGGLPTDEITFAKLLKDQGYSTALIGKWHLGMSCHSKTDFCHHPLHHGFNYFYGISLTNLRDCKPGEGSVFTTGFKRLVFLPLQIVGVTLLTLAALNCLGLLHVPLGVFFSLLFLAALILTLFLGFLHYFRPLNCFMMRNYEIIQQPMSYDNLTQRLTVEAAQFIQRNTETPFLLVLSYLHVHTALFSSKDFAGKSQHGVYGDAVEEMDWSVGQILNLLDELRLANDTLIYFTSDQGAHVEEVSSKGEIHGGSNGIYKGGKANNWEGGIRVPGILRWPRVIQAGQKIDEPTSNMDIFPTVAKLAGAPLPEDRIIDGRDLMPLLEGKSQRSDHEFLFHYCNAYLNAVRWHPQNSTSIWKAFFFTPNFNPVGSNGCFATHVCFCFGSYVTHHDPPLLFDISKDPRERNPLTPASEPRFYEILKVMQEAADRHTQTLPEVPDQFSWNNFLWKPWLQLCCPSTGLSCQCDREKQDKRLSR
In words: in vitro conversion assay: inhibition of conversion of 3H-estrone sulfate to 3H-estrone by estrone sulfatase. The format is biochemical. The protocol: The compounds prepared according to the methods of the above Examples were tested for biological activity in inhibiting sulfatase activity using an in vitro conversion assay procedure. As will be appreciated by those skilled in the art, this assay is based on inhibition of the conversion of ^3H-estrone sulfate to ^3H-estrone by the enzyme estrone sulfatase. The final volume of the enzyme assay was 0.15 ml. [6.7-^3H] estrone sulfate (final concentration 3.3 nmole/L; 300,000 dpm/tube); an inhibitor at various concentrations in DMSO and recombinant human estrone sulfatase (33 ng/tube) in phosphate buffered saline, containing 0.25 M sucrose and 0.04 M nicotinamide, pH 7, were added to a 1.5 ml microtube. Recombinant human estrone sulfatase was partially purified from Chinese Hamster Ovary (CHO) cells in which human estrone sulfatase cDNA was transfected. The assay began by the addition of the substrate estrone sulfate. After 60 minutes of incubation at 37° C., 0.5 ml of toluene were added to quench the assay. Control samples with no inhibitor were incubated simultaneously. Blank samples were obtained by incubating without estrone sulfatase. The quenched samples were vortexed for 30 seconds and centrifuged (9,000 rpm for 5 minutes). Two hundred and fifty microliters of toluene were obtained from each quenched sample to determine the amount of product formation. Product formation for samples containing an inhibitor was compared to that of control samples (without inhibitors) run simultaneously. This was reported as percent inhibition of control sample which equals
100× Product formation for sample containing inhibitor Product formation for sample with no inhibitor (control)
Each concentration was tested in duplicate in three separate experiments.

The mark [1] stands for this setting: Table 3 (Example 8; compounds 7, 29d, 29h, 29m), same in vitro conversion assay, read-out: IC50.

As usually defined, the pIC50 is the IC50 on a negative log10 scale, so that one unit is a factor of ten.

pIC50: −log10 of the molar value. Like-named read-outs stand apart in the source and are kept apart here.

`CCCN(C)C(=O)[C@H]1CC[C@H]2[C@@H]3CCc4cc(OS(N)(=O)=O)ccc4[C@H]3CC[C@]12C` [Compound 29m, 17β-(N-methyl-N-Propylcarbamoyl)estra-1,3,5 (10)-trien-3-yl sulfamate]: the pIC50 was 8.26. `CC(C)NC(=O)[C@H]1CC[C@H]2[C@@H]3CCc4cc(OS(N)(=O)=O)ccc4[C@H]3CC[C@]12C` [Compound 29h, 17β-(N-Isopropylcarbamnoyl)estra-1,3,5(10)-trien-3-yl sulfamate]: the pIC50 under setting [1] was 7.77. As for `CC(C)CNC(=O)[C@H]1CC[C@H]2[C@@H]3CCc4cc(OS(N)(=O)=O)ccc4[C@H]3CC[C@]12C` [Compound 29d, 17β-(N-Isobutylcarbamoyl)estra-1,3,5(10)-trien-3-yl sulfamate], the pIC50 was 8.19.

`CCCNC(=O)[C@H]1CC[C@H]2[C@@H]3CCc4cc(OS(N)(=O)=O)ccc4[C@H]3CC[C@]12C` [Compound 7, 17β-(N-Propylcarbamoyl)estra-1,3,5(10)-trien-3-yl sulfamate]: under setting [1], the pIC50 is 7.72.
